Common to all, as to type: biochemical
The nature of one test: DPPH· scavenging.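 Further: colourimetric DPPH radical scavenging in 96-well plates, absorbance read-out, percent inhibition relative to ethanol control absorbance, IC50 derived graphically from dose-inhibition curves.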 The conditions noted are these: mean ± SD, n = 3.
Test [1] can be described thus: ABTS·+ decolourisation capacity. The conditions noted are these: for ABTS scavenging rate: 0.5mM series, replicate wells; for IC50: mean ± SD, n = 3. On the procedure: Fast colourimetric methods were slightly modified for the in vitro assessment of DPPH· scavenging ([19]), ABTS·+ decolourisation capacity ([20]), and total antioxidant capacity of FRAP ([21]). The stock solutions of derivatisation reagents were diluted as follows before measurement: DPPH was diluted with absolute ethanol until the absorbance was 0.8 ± 0.05 at λ = 517 nm. ABTS working solution was prepared with phosphate buffer (0.2 M, pH 7.4) to display absorbance of 0.8 ± 0.05 at λ = 729 nm, based on a previous study ([22]). The FRAP solution was prepared according to the instructions of the FRAP kit. Absorbances were measured using an automatic microplate reader (Molecular Group Ltd., USA), and all analyses were performed using 96-well plates. All measurements were performed in triplicate, and Trolox was used as a positive control.
For ABTS·+ decolourisation capacity, 100 μl of ABTS working solution was mixed with 200 μl of sample solution, and the absorbance was recorded after 10 min at 729 nm. Phosphate buffer (0.2 M, pH 7.4) was used as a negative control.
DPPH· and ABTS·+ radical scavenging activities of the tested sample were both calculated using the following formula:
% inhibition = (A control − A sample)/A control × 100
Where A control and A sample represent the absorbance of the control and test samples, respectively. The IC50 was calculated graphically from the dose-inhibition curves.

Test [2] in a line: FRAP total antioxidant capacity.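 Further: colourimetric FRAP kit assay read as absorbance in 96-well plates, values as mM FeSO4 via standard curve, EC1 being sample concentration matching 1.0 mmol/L FeSO4, Trolox positive control.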 The conditions noted are these: lower part of sheet (compound series).
A further test has as its target T1, COX-2 (Homo sapiens, UniProt P35354).
T1 construct: purchased Beyotime S0168
T1 sequence (P35354 18-604): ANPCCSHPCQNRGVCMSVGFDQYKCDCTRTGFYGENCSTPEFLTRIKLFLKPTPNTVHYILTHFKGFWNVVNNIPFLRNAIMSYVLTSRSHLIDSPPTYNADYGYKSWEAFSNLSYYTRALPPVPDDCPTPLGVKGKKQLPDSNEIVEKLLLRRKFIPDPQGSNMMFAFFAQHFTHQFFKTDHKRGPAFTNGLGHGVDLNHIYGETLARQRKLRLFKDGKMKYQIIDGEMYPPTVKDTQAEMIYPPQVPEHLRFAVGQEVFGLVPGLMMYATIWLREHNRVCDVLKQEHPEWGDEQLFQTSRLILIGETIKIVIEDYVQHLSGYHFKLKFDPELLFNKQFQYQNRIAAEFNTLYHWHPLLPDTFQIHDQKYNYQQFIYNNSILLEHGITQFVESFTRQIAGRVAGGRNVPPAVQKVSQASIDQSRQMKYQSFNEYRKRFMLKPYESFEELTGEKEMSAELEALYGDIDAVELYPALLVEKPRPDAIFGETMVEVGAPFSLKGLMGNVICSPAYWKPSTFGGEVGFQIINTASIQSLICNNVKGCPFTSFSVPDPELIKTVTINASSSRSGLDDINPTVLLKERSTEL
In words: Anti-COX-2 assay (COX-2 Inhibitor Screening Kit).

Test [3] is described as follows: Fluorescent AGEs formation in a BSA-fructose/glucose system. The conditions noted are these: mean ± SD, n = 3; read-out: BSA-glycation IC50. On the procedure:
Glycated protein was prepared in vitro by incubating BSA in the presence of D-glucose (GLC) and D-fructose (FRC). The DOF extract and specific standards were dissolved in DMSO:water (1:4). […] The assay was performed in triplicate, and AG was used as a positive control. The percentage inhibition of fluorescent AGE formation was calculated using the following equation: […] Where IF sample is fluorescence intensity in the presence of samples and BSA, IF sample control is fluorescence intensity in the presence of samples without BSA, IF control is fluorescence intensity without samples, and IF blank control is fluorescence intensity without samples and BSA.

Setting [4] is: mean ± SD, n = 3, nd, not detected, read-out: COX-2 IC50.
The mark [5] stands for this setting: supplement sheet COX, read-out: COX-2 IC50, single replicate.

Each structure is given as a SMILES string. Several values for one entry are separate records, joined by “and”; a condition that tells them apart may be missing. Equal values may be shown once. Read-outs that look alike come from different tables or passages of the source.

With `O=c1cc(-c2ccc(O)c(O)c2)oc2c(C3OCC(O)C(O)C3O)c(O)c(C3OC(CO)C(O)C(O)C3O)c(O)c12` [compound 15, Luteolin-6-C-β-D-glucoside-8-C-β-D-xyloside], the IC50 in the test “DPPH· scavenging” is 145 ± 51.4 µM; in test [1], 13.8 ± 0.82 µM; on COX-2 (setting [4]), 13.9 ± 2.4 µM; on COX-2 (setting [5]), 11.2 µM and 15.8 µM and 14.8 µM; in test [3], 294 ± 13.3 µM. The ABTS scavenging rate in test [1] (concentration 7.8125 (unit not given), listed as T19) is 33.84% and 32.82% and 31.57%; in test [1] (concentration 15.625 (unit not given), listed as T19), 51.02% and 51.43% and 45.77%; in test [1] (concentration 31.25 (unit not given), listed as T19), 80.79% and 81.13% and 77.35%; in test [1] (concentration 62.5 (unit not given), listed as T19), 99.45% and 99.39% and 98.61%; in test [1] (concentration 125 (unit not given), listed as T19), 99.58% and 99.48% and 99.50%; in test [1] (concentration 250 (unit not given), listed as T19), 99.61% and 99.60% and 99.48%. For the same molecule, the ABTS scavenging rate in test [1] (concentration 500 (unit not given), listed as T19) was 99.69% (2×) and 99.56%. Moreover, the “FRAP EC1” value in test [2] was determined as 1100.3 ± 138.4 µM. Further, the “COX-2 inhibition (in words)” value at COX-2 is on record as “great COX-2 inhibition”. At COX-2 (3.125 μM, single replicates), this molecule had an inhibition at 3.125 µM of 14.6%. The COX-2 inhibition on COX-2 (3.125 μM, single replicates, listed as T19, 3.125 µM) is 14.16% and 11.51%; at COX-2 (6.25 μM, single replicates, listed as T19, 6.25 µM) it was 23.77% and 25.81%; on COX-2 (12.5 μM, single replicates, listed as T19, 12.5 µM), 53.05% and 54.30%; on COX-2 (25 μM, single replicates, listed as T19, 25 µM) it was 68.96% and 71.63%; on COX-2 (50 μM, single replicates, listed as T19, 50 µM), 74.58% and 74.45%; at COX-2 (100 μM, single replicates, listed as T19, 100 µM), 75.76% and 77.02%. On COX-2 (200 μM, single replicates, listed as T19, 200 µM), the COX-2 inhibition is 78.95% and 81.08%. The inhibition at 6.25 µM against COX-2 (6.25 μM, single replicates) turned out to be 39.3%. Moreover, the inhibition at 12.5 µM against COX-2 (12.5 μM, single replicates) was found to be 60.5%. Testing at 25 µM at COX-2 (25 μM, single replicates) gave an inhibition of 71.9%. On COX-2 (50 μM, single replicates), this molecule yielded an inhibition at 50 µM of 75.8%. Moreover, the inhibition at 100 µM at COX-2 (100 μM, single replicates) was 83.1%. Testing at 200 µM against COX-2 (200 μM, single replicates) gave an inhibition of 80.8%.

For `O=c1cc(-c2ccc(O)cc2)oc2c(C3OCC(O)C(O)C3O)c(O)c(C3OC(CO)C(O)C(O)C3O)c(O)c12` (stereo not shown) [compound 17, Schaftoside], the values for the half-inhibitory concentration (IC50) (in “DPPH· scavenging”; in test [1]; in test [3]) were more than 5000 µM, 75.6 ± 12.1 µM and 250 ± 4.16 µM, respectively. Besides, the “FRAP EC1” value in test [2] is more than 5000 µM. Also, on COX-2, the “COX-2 inhibition (in words)” value was “no inhibitory effects”. Besides, the COX-2 inhibition was -26.58% and -23.72% and 26.46% at COX-2 (31.25 μM, single replicates, listed as T4, 31.25 µM); -5.78% and -8.50% and -9.30% on COX-2 (62.5 μM, single replicates, listed as T4, 62.5 µM); -21.60% and 2.72% on COX-2 (125 μM, single replicates, listed as T4, 125 µM); -34.33% and -33.14% and 20.94% on COX-2 (250 μM, single replicates, listed as T4, 250 µM); -36.70% and -25.03% and -14.74% on COX-2 (500 μM, single replicates, listed as T4, 500 µM); -40.79% and -25.81% and -34.65% at COX-2 (1000 μM, single replicates, listed as T4, 1000 µM). On COX-2 (2000 μM (2mM), single replicates, listed as T4), the COX-2 inhibition is -30.80% and -21.24% and -15.63%.

In the case of `O=c1cc(-c2ccc(O)c(O)c2)oc2cc(O)c(C3OC(CO)C(O)C(O)C3O)c(O)c12` [compound 18, Luteolin-6-C-β-D-glucoside], the IC50 in “DPPH· scavenging” was 102 ± 6.2 µM; in test [1] it was 7.1 ± 0.1 µM; on COX-2 (setting [4]), 7.9 ± 2.4 µM; at COX-2 (setting [5]), 10 µM and 8.56 µM and 5.24 µM; in test [3], 317 ± 15.6 µM. For the same molecule, the ABTS scavenging rate is 55.37% and 55.07% and 56.44% in test [1] (concentration 7.8125 (unit not given), listed as T17); 79.33% and 79.42% (2×) in test [1] (concentration 15.625 (unit not given), listed as T17); 99.48% (2×) and 99.43% in test [1] (concentration 31.25 (unit not given), listed as T17); 99.27% and 99.11% and 99.08% in test [1] (concentration 62.5 (unit not given), listed as T17); 99.06% and 98.78% and 98.90% in test [1] (concentration 125 (unit not given), listed as T17); 98.95% and 99.14% and 99.11% in test [1] (concentration 250 (unit not given), listed as T17). Further, the ABTS scavenging rate in test [1] (concentration 500 (unit not given), listed as T17) is 99.30% and 99.22% and 99.17%. The “FRAP EC1” value in test [2] was determined as 506.6 ± 78.3 µM. On COX-2, the “COX-2 inhibition (in words)” value is “great COX-2 inhibition”. The same molecule came in with an inhibition at 3.125 µM against COX-2 (3.125 μM, single replicates) of 16.9%. Moreover, the COX-2 inhibition was 26.59% and 29.93% on COX-2 (3.125 μM, single replicates, listed as T17, 3.125 µM); 36.73% and 36.77% and 59.48% at COX-2 (6.25 μM, single replicates, listed as T17, 6.25 µM); 69.47% and 74.84% on COX-2 (12.5 μM, single replicates, listed as T17, 12.5 µM); 75.14% and 79.85% at COX-2 (25 μM, single replicates, listed as T17, 25 µM); 79.38% and 83.25% on COX-2 (50 μM, single replicates, listed as T17, 50 µM); 81.46% and 83.62% at COX-2 (100 μM, single replicates, listed as T17, 100 µM). Moreover, the COX-2 inhibition at COX-2 (200 μM, single replicates, listed as T17, 200 µM) is 89.90% and 90.15%. Further, the inhibition at 12.5 µM at COX-2 (12.5 μM, single replicates) is 65.1%. The inhibition at 25 µM on COX-2 (25 μM, single replicates) came out at 74.8%. On COX-2 (50 μM, single replicates), this molecule gave an inhibition at 50 µM of 78.4%. The same molecule displayed an inhibition at 100 µM against COX-2 (100 μM, single replicates) of 84.8%. At COX-2 (200 μM, single replicates), this molecule yielded an inhibition at 200 µM of 90.6%.

As usually defined, the IC50 is the concentration needed to halve the response being measured. The term inhibition denotes the drop in the measured response relative to a control, in per cent. A higher inhibition goes with a strong effect.

(Values after article PMC10064984, “Anti-cyclooxygenase, anti-glycation, and anti-skin aging effect of Dendrobium officinale flowers’ aqueous extract and its phytochemical validation in aging” (Frontiers in Immunology, 2023).)
